Reference: ChEMBL document CHEMBL6182888, “Design, synthesis, and biological activity study of 6,7-dimethoxy-1,2,3,4-tetrahydroisoquinoline derivatives against multidrug resistance in Eca109/VCR cells” (Eur J Med Chem, 2025)

Columns and labels:
[1] = Reversal fold, ratio of vincristine IC50 to vincristine IC50 in presence of test compound for reversal of drug resistance in human Eca-109/VCR cells at 5 uM incubated for 48 hrs by CCK-8 assay; assay type: functional
Eca-109/VCR [2] = assay: Cytotoxicity against human Eca-109/VCR cells assessed as reduction in cell viability at 5.0 uM incubated for 48 hrs by CCK-8 assay relative to control; assay type: functional
Eca-109/VCR [3] = assay: Induction of apoptosis in human Eca-109/VCR cells assessed as late apoptotic cells at 2.5 uM incubated for 60 hrs in presence of vincristine by Annexin V-FITC/PI staining based flow cytometric analysis (reference value: 0.56%); assay type: functional
Eca-109/VCR [4] = assay: Induction of apoptosis in human Eca-109/VCR cells assessed as viable cells at 5 uM incubated for 60 hrs by Annexin V-FITC/PI staining based flow cytometric analysis (reference value: 97.4%); assay type: functional; conditions: read-out: Activity
Eca-109/VCR [5] = assay: Induction of apoptosis in human Eca-109/VCR cells assessed as early apoptotic cells at 2.5 uM incubated for 60 hrs by Annexin V-FITC/PI staining based flow cytometric analysis (reference value: 1.66%); assay type: functional
Eca-109/VCR [6] = assay: Induction of apoptosis in human Eca-109/VCR cells assessed as late apoptotic cells at 2.5 uM incubated for 60 hrs by Annexin V-FITC/PI staining based flow cytometric analysis (reference value: 0.70%); assay type: functional
Eca-109/VCR [7] = assay: Induction of apoptosis in human Eca-109/VCR cells assessed as necrotic cells at 2.5 uM incubated for 60 hrs in presence of vincristine by Annexin V-FITC/PI staining based flow cytometric analysis (reference value: 0.10%); assay type: functional
Eca-109/VCR [8] = assay: Induction of apoptosis in human Eca-109/VCR cells assessed as viable cells at 2.5 uM incubated for 60 hrs in presence of vincristine by Annexin V-FITC/PI staining based flow cytometric analysis (reference value: 97.3%); assay type: functional; conditions: read-out: Activity
Eca-109/VCR [9] = assay: Induction of apoptosis in human Eca-109/VCR cells assessed as viable cells at 5 uM incubated for 60 hrs in presence of vincristine by Annexin V-FITC/PI staining based flow cytometric analysis (reference value: 97.3%); assay type: functional; conditions: read-out: Activity
Eca-109/VCR [10] = assay: Induction of apoptosis in human Eca-109/VCR cells assessed as necrotic cells at 5 uM incubated for 60 hrs by Annexin V-FITC/PI staining based flow cytometric analysis (reference value: 0.22%); assay type: functional
Eca-109/VCR [11] = assay: Induction of apoptosis in human Eca-109/VCR cells assessed as late apoptotic cells at 5 uM incubated for 60 hrs in presence of vincristine by Annexin V-FITC/PI staining based flow cytometric analysis (reference value: 0.56%); assay type: functional
Eca-109/VCR [12] = assay: Induction of apoptosis in human Eca-109/VCR cells assessed as necrotic cells at 5 uM incubated for 60 hrs in presence of vincristine by Annexin V-FITC/PI staining based flow cytometric analysis (reference value: 0.10%); assay type: functional
Eca-109/VCR [13] = assay: Induction of apoptosis in human Eca-109/VCR cells assessed as viable cells at 2.5 uM incubated for 60 hrs by Annexin V-FITC/PI staining based flow cytometric analysis (reference value: 97.4%); assay type: functional; conditions: read-out: Activity
Eca-109/VCR [14] = assay: Induction of apoptosis in human Eca-109/VCR cells assessed as necrotic cells at 2.5 uM incubated for 60 hrs by Annexin V-FITC/PI staining based flow cytometric analysis (reference value: 0.22%); assay type: functional
Eca-109/VCR [15] = assay: Induction of apoptosis in human Eca-109/VCR cells assessed as early apoptotic cells at 5 uM incubated for 60 hrs by Annexin V-FITC/PI staining based flow cytometric analysis (reference value: 1.66%); assay type: functional
Eca-109/VCR [16] = assay: Induction of apoptosis in human Eca-109/VCR cells assessed as late apoptotic cells at 5 uM incubated for 60 hrs by Annexin V-FITC/PI staining based flow cytometric analysis (reference value: 0.70%); assay type: functional
ECa-109 cell line = assay: Cytotoxicity against human Eca-109 cells incubated for 48 hrs by CCK-8 assay; assay type: functional, cell-based; conditions: ECa-109, 48 h

| Compound | Ratio IC50 [1] | Cell viability (% of control) (Eca-109/VCR [2]) [%] | further results |
| --- | --- | --- | --- |
| COc1cc2c(cc1OC)C(Cc1ccc(OC)c(OCCc3ccccc3)c1)N(C)CC2 (stereo unspecified) | 12.3 | 102.4 |  |
| COc1cc2c(cc1OC)C(Cc1ccc(OS(=O)(=O)Cc3ccccc3)c(OC)c1)N(C)CC2 (stereo unspecified) | 171.6 | 102.6 |  |
| C=CCCCCOc1ccc(CC2c3cc(OC)c(OC)cc3CCN2C)cc1OC (stereo unspecified) | 1.9 | 103.4 |  |
| COc1cc2c(cc1OC)C(Cc1ccc(OCCC(C)C)c(OC)c1)N(C)CC2 (stereo unspecified) | 227.1 | 105.5 |  |
| COc1cc2c(cc1OC)C(Cc1ccc(OC)c(OS(=O)(=O)c3ccc(C(F)(F)F)cc3)c1)N(C)CC2 (stereo unspecified) | 371.9 | 100.5 |  |
| COc1cc2c(cc1OC)CN(CCc1ccc(NC(=O)c3cc(OC)c(OC)cc3NC(=O)c3cnc4ccccc4c3)cc1)CC2 [TARIQUIDAR] |  | 84.8 | Activity (Eca-109/VCR [3]): 7.6%; viability at 5 µM (Eca-109/VCR [4]): 95.6%; Activity (Eca-109/VCR [5]): 1%; Activity (Eca-109/VCR [6]): 0.64%; Activity (Eca-109/VCR [7]): 0.47%; viability at 2.5 µM (Eca-109/VCR [8]): 63.2%; viability at 5 µM (Eca-109/VCR [9]): 63.4%; Activity (Eca-109/VCR [10]): 0.21%; Activity (Eca-109/VCR [11]): 7%; Activity (Eca-109/VCR [12]): 0.57%; viability at 2.5 µM (Eca-109/VCR [13]): 96.1%; Activity (Eca-109/VCR [14]): 0.22%; Activity (Eca-109/VCR [15]): 3.18% |
| CCOCCOCCOc1cc(CC2c3cc(OC)c(OC)cc3CCN2C)ccc1OC (stereo unspecified) | 2.2 | 103.1 |  |
| COc1cc2c(cc1OC)C(Cc1ccc(OCc3ccc(Cl)cc3Cl)c(OC)c1)N(C)CC2 (stereo unspecified) | 307.6 | 92.4 |  |
| COc1cc2c(cc1OC)C(Cc1ccc(OCC3CCC3)c(OC)c1)N(C)CC2 (stereo unspecified) | 188.7 | 107.9 |  |
| COc1cc2c(cc1OC)C(Cc1ccc(OCC3CCCCC3)c(OC)c1)N(C)CC2 (stereo unspecified) | 280 | 87.7 |  |
| COc1cc2c(cc1OC)C(Cc1ccc(OCc3ccc(Br)cc3)c(OC)c1)N(C)CC2 (stereo unspecified) | 201.2 | 91.1 |  |
| C=CCCCCOc1cc(CC2c3cc(OC)c(OC)cc3CCN2C)ccc1OC (stereo unspecified) | 15.2 | 98.2 |  |
| COc1cc2c(cc1OC)C(Cc1ccc(OC)c(OCC(=O)OC(C)(C)C)c1)N(C)CC2 (stereo unspecified) | 3.6 | 104.3 |  |
| COc1cc2c(cc1OC)C(Cc1ccc(OCC3CC3)c(OC)c1)N(C)CC2 (stereo unspecified) | 1.5 | 104.2 |  |
| COc1cc2c(cc1OC)C(Cc1ccc(OC)c(OS(=O)(=O)c3ccccc3)c1)N(C)CC2 (stereo unspecified) | 24 | 102.6 |  |
| COc1cc2c(cc1OC)C(Cc1ccc(OC)c(OS(=O)(=O)c3ccccc3F)c1)N(C)CC2 (stereo unspecified) | 16.5 | 98.9 |  |
| CCCCCCCCOc1ccc(CC2c3cc(OC)c(OC)cc3CCN2C)cc1OC (stereo unspecified) | 82.6 | 94.7 |  |
| COc1cc2c(cc1OC)C(Cc1ccc(OC)c(OC(=O)c3ccc4ccccc4c3)c1)N(C)CC2 (stereo unspecified) | 107.9 | 101.1 |  |
| COc1cc2c(cc1OC)C(Cc1ccc(OCCc3ccccc3)c(OC)c1)N(C)CC2 (stereo unspecified) | 1.8 | 104.2 |  |
| COc1cc2c(cc1OC)C(Cc1ccc(OS(=O)(=O)c3ccc([N+](=O)[O-])cc3)c(OC)c1)N(C)CC2 (stereo unspecified) | 172.2 | 105.6 |  |
| CCOCCOCCOc1ccc(CC2c3cc(OC)c(OC)cc3CCN2C)cc1OC (stereo unspecified) | 8.5 | 103.6 |  |
| COC(=O)c1sccc1S(=O)(=O)Oc1cc(CC2c3cc(OC)c(OC)cc3CCN2C)ccc1OC (stereo unspecified) | 12.3 | 100.7 |  |

| Compound | Ratio IC50 [1] | Cell viability (% of control) (Eca-109/VCR [2]) [%] | further results |
| --- | --- | --- | --- |
| COc1cc2c(cc1OC)C(Cc1ccc(OC)c(OCc3ccc(Cl)cc3Cl)c1)N(C)CC2 (stereo unspecified) | 412.3 | 55.4 |  |
| COc1cc2c(cc1OC)C(Cc1ccc(OC)c(OS(=O)(=O)c3ccc([N+](=O)[O-])cc3)c1)N(C)CC2 (stereo unspecified) | 141.5 | 101.5 |  |
| COc1cc2c(cc1OC)C(Cc1ccc(OC)c(OCC3CC3)c1)N(C)CC2 (stereo unspecified) | 6.3 | 105.6 |  |
| COc1cc2c(cc1OC)C(Cc1ccc(OC)c(OS(=O)(=O)c3ccc4ccccc4c3)c1)N(C)CC2 (stereo unspecified) | 340.5 | 94.7 |  |
| COc1cc2c(cc1OC)C(Cc1ccc(OC)c(OCC3CCC3)c1)N(C)CC2 (stereo unspecified) | 122.6 | 102.7 |  |
| COc1cc2c(cc1OC)C(Cc1ccc(OCc3ccccc3)c(OC)c1)N(C)CC2 (stereo unspecified) | 80.3 | 101.4 |  |
| CCCCCCCCOc1cc(CC2c3cc(OC)c(OC)cc3CCN2C)ccc1OC (stereo unspecified) | 159 | 95.3 |  |
| COc1cc2c(cc1OC)C(Cc1ccc(OS(=O)(=O)c3ccc(C(F)(F)F)cc3)c(OC)c1)N(C)CC2 (stereo unspecified) | 307.4 | 90.4 |  |
| COc1cc2c(cc1OC)C(Cc1ccc(OC)c(Oc3ccc([N+](=O)[O-])cc3)c1)N(C)CC2 (stereo unspecified) | 53.2 | 100.4 |  |
| COc1cc2c(cc1OC)C(Cc1ccc(OCCCc3ccccc3)c(OC)c1)N(C)CC2 (stereo unspecified) | 162.4 | 103.3 |  |
| COc1cc2c(cc1OC)C(Cc1ccc(OC)c(OS(=O)(=O)c3ccc(C#N)cc3)c1)N(C)CC2 (stereo unspecified) | 235.4 | 96 |  |
| COc1cc2c(cc1OC)C(Cc1ccc(OS(=O)(=O)c3ccc4ccccc4c3)c(OC)c1)N(C)CC2 (stereo unspecified) | 362.1 | 84.7 |  |
| COc1cc2c(cc1OC)C(Cc1ccc(OS(=O)(=O)c3ccc(C#N)cc3)c(OC)c1)N(C)CC2 (stereo unspecified) | 168.5 | 99.9 |  |
| COc1ccc(CCN(C)CCCC(C#N)(c2ccc(OC)c(OC)c2)C(C)C)cc1OC (stereo unspecified) [VERAPAMIL] |  | 98.9 | Activity (Eca-109/VCR [3]): 0.85%; viability at 5 µM (Eca-109/VCR [4]): 96.2%; Activity (Eca-109/VCR [5]): 1.19%; Activity (Eca-109/VCR [6]): 0.55%; Activity (Eca-109/VCR [7]): 0.17%; viability at 2.5 µM (Eca-109/VCR [8]): 96%; viability at 5 µM (Eca-109/VCR [9]): 75.4%; Activity (Eca-109/VCR [16]): 0.72%; Activity (Eca-109/VCR [10]): 0.13%; Activity (Eca-109/VCR [11]): 5.95%; Activity (Eca-109/VCR [12]): 0.34%; Activity (Eca-109/VCR [14]): 0.2%; Activity (Eca-109/VCR [15]): 1.12% |
| COc1cc2c(cc1OC)C(Cc1ccc(OC)c(OCc3ccc(Br)cc3)c1)N(C)CC2 (stereo unspecified) | 158 | 97.8 |  |
| COc1cc2c(cc1OC)C(Cc1ccc(OS(=O)(=O)c3ccccc3F)c(OC)c1)N(C)CC2 (stereo unspecified) | 274.3 | 98.2 |  |
| COc1cc2c(cc1OC)C(Cc1ccc(OC)c(OCCCc3ccccc3)c1)N(C)CC2 (stereo unspecified) | 124.1 | 96.9 |  |
| COc1cc2c(cc1OC)C(Cc1ccc(OC)c(OS(=O)(=O)Cc3ccccc3)c1)N(C)CC2 (stereo unspecified) | 180 | 101.5 |  |
| COC(=O)c1sccc1S(=O)(=O)Oc1ccc(CC2c3cc(OC)c(OC)cc3CCN2C)cc1OC (stereo unspecified) | 182.2 | 101.9 |  |
| COc1cc2c(cc1OC)C(Cc1ccc(OC)c(OC(=O)C3CCCCC3)c1)N(C)CC2 (stereo unspecified) | 4.5 | 103.6 |  |
| COc1cccc2c1C(=O)c1c(O)c3c(c(O)c1C2=O)C[C@@](O)(C(=O)CO)C[C@@H]3O[C@H]1C[C@H](N)[C@H](O)[C@H](C)O1 [DOXORUBICIN] |  |  | IC50 (ECa-109 cell line): 2070 nM |
| COc1cc2c(cc1OC)C(Cc1ccc(OC)c(OS(=O)(=O)c3ccccc3[N+](=O)[O-])c1)N(C)CC2 (stereo unspecified) | 253.3 | 102 |  |
